Reference: PubChem BioAssay AID651859 (Sanford-Burnham Center for Chemical Genomics, 2012)
Calls of active or inactive are those of the source. No rule for the calls is given here.

Each compound was assayed on cell viability, luminescent cytotoxicity assay (assay: cytotoxicity, cell viability loss, SAR follow-up, cytotoxicity control for Gli-SUFU antagonist project, luminescence, set 2 (AID 651859)).

SMILES	IC50
O=C(Nc1cc(N2CCSCC2)ncn1)c1ccccc1	> 11.7 µM (inactive)
O=C(Nc1cc(N2CCCCC2)ncn1)c1ccco1	> 11.7 µM (inactive)
N#Cc1cccc(C(=O)Nc2cc(N3CCCCC3)ncn2)c1	> 11.7 µM (inactive)
CCC(C)Nc1cc(NC(=O)c2ccccc2)ncn1 (stereo not drawn)	> 11.7 µM (inactive)
CC1CCN(c2cc(NC(=O)c3ccccc3)ncn2)CC1	> 11.7 µM (inactive)
O=C(Nc1cc(N2CCCCC2)ncn1)c1ccccc1C(F)(F)F	> 11.7 µM (inactive)
CCCCNc1cc(NC(=O)c2ccccc2)ncn1	> 11.7 µM (inactive)
O=C(Nc1cc(NCC2CCCO2)ncn1)c1ccccc1 (stereo not drawn)	> 11.7 µM (inactive)
CCOc1ccc(-c2nc(CSCC(=O)NC3CC3)c(C)o2)cc1	> 11.7 µM (inactive)
CN1CCN(c2cc(NC(=O)c3ccccc3)ncn2)CC1	> 11.7 µM (inactive)
CC(C)(C)Nc1cc(NC(=O)c2ccccc2)ncn1	> 11.7 µM (inactive)
Cc1ccc(C(=O)Nc2cc(N3CCCCC3)ncn2)cc1	> 11.7 µM (inactive)
O=C(Nc1cc(N2CCOCC2)ncn1)c1ccccc1	> 11.7 µM (inactive)
O=C(Nc1cc(N2CCCCC2)ncn1)c1ccc(Cl)cc1	> 11.7 µM (inactive)
CCOc1ccc(S(=O)(=O)NCc2ccncc2)cc1NC(=O)c1ccccc1	> 11.7 µM (inactive)
O=C(Nc1cc(N2CCCCC2)ncn1)c1cccc2ccccc12	> 11.7 µM (inactive)
CCCCN(C)c1cc(NC(=O)c2ccccc2)ncn1	> 11.7 µM (inactive)

SMILES	IC50
O=C(Nc1cc(N2CCNCC2)ncn1)c1ccccc1	> 11.7 µM (inactive)
CC(C)Nc1cc(NC(=O)c2ccccc2)ncn1	> 11.7 µM (inactive)
O=C(Nc1cc(N2CCCCCC2)ncn1)c1ccccc1	> 11.7 µM (inactive)
O=C(Nc1cc(N2CCCCC2)ncn1)c1ccsc1	> 11.7 µM (inactive)
COc1ccccc1C(=O)Nc1cc(N2CCCCC2)ncn1	> 11.7 µM (inactive)
CC(C)CNc1cc(NC(=O)c2ccccc2)ncn1	> 11.7 µM (inactive)
CC1CCCCN1c1cc(NC(=O)c2ccccc2)ncn1 (stereo not drawn)	> 11.7 µM (inactive)
O=C(Nc1cc(N2CCCCC2)ncn1)c1ccc2ccccc2c1	> 11.7 µM (inactive)
O=C(Nc1cc(N2CCCCC2)ncn1)c1ccccc1Cl	> 11.7 µM (inactive)
O=C(Nc1cc(N2CCCCC2)ncn1)c1cccs1	> 11.7 µM (inactive)
N#Cc1ccc(C(=O)Nc2cc(N3CCCCC3)ncn2)cc1	> 11.7 µM (inactive)
COc1cccc(C(=O)Nc2cc(N3CCCCC3)ncn2)c1	> 11.7 µM (inactive)
CC(C)(C)OC(=O)N1CCN(c2cc(NC(=O)c3ccccc3)ncn2)CC1	> 11.7 µM (inactive)
O=C(Nc1cc(N2CCCCC2)ncn1)c1ccc(C(F)(F)F)cc1	> 11.7 µM (inactive)
O=C(Nc1cc(N2CCCCC2)ncn1)c1ccccc1	> 11.7 µM (inactive)
O=C(Nc1cc(N2CCCCC2)ncn1)c1cc2ccccc2s1	> 11.7 µM (inactive)
